Where two headings read alike, the source gives them in different places.
Legend:
[1] = test system: P. falciparum asexual blood stage parasites (strains NF54, D6, K1, W2, 7G8, TM90C2A, V1/S); experiment: [3H]-hypoxanthine incorporation growth inhibition assay, asexual blood stage; format: cell-based, Plasmodium falciparum; conditions: for IC50: Plasmodium falciparum; for resistance / retention of potency against resistant strains: drug-resistant strains; for fold reduction in potency: against all drug-resistant strains containing the mutated chloroquine transporter (PfCRT)
Description: In vitro antimalarial activity was measured using the [^3H]-hypoxanthine incorporation assay with various strains of P. falciparum obtained from MR4. Results were expressed as the concentration resulting in 50% inhibition (IC50).
The half-maximal inhibitory concentrations (IC50) were determined for each molecule (Table S2).
Figure 2 The potencies of selected antimalarials against asexual blood stages. Main classes of antimalarials were tested against the blood stage of seven Plasmodium falciparum strains in the [^3H]hypoxanthine incorporation assay as described in Vennerstrom et al.. The strains tested here (obtained from MR4) were two drug-sensitive strains NF54 and D6 and five drug-resistant strains: K1, resistant to chloroquine (CQ) and pyrimethamine (PYR), origin Thailand, carries mutations in genes pfmdr1, pfcrt, pfdhfr, pfdhps; W2, resistant to CQ, PYR, quinine, cycloguanil, and sulfadoxine, origin Vietnam; 7G8, resistant to CQ and PYR, origin Brazil; TM90C2A, resistant to CQ, PYR, and MFQ, origin Thailand; and V1/S, resistant to CQ, PYR and cycloguanil, origin Vietnam. Results are expressed as the concentration resulting in 50% growth inhibition (IC50).Values are means of ≥3 independent experiments. (A) Endoperoxides. (B) 4-AQs. (C) 8-AQs and amino alcohols. (D) Antifolates, antibiotics, and others.

HepG2 cells = experiment: Growth retardation of HepG2 cells; conditions: for IC50: Homo sapiens, HepG2, read-out: IC50 HepG2
Description: (§1) 7.5×10^3 HepG2 cells in 50 µl of medium (1.5×10^5 cells/ml) were seeded in 384 well plates (Aurora 384 IQ-EB Black/Clear Plates) 20–26 h prior to the actual infection. 2 h prior to infection, 50 nl of compound in DMSO (0.1% final DMSO concentration per well) were transferred with a PinTool (GNF Systems) into the assay plates (10 µM final concentration). P. yoelii sporozoites were freshly dissected from infected A. stephensi mosquito salivary glands and filtered twice with a 40-µm strainer. The HepG2 cells were then infected with 8×10^3 sporozoites per well. After infection and 1-h incubation at 37°C, the cultures were washed, new media and compound added, and further incubated with 5-fold increased concentration of penicillin/streptomycin for 48 h at 37°C before exoerythrocytic forms (EEFs) quantification of infected cells by immunofluorescence.
(§2) High-content imaging of infected HepG2-CD81 cells was performed as described in Meister et al.. Wells were analysed using a custom Acapella (PerkinElmer) script parameterized for this assay. In brief, images from fields inside the well were first discarded as out of focus when the intensity in the nuclear area was too low. Then hepatic cells were counted by detecting the nuclei labelled with Hoechst 33342 and parasites were segmented using the HSP70 immuno-labelling. Morphology-based (e.g., area, roundness) and intensity-based features were calculated for each object detected including the hepatocyte nuclei and the parasites. Parasitemia was set as the ratio between parasite number (Alexa fluor positive) and the hepatocyte nuclei count, determined at the same time.
(§3) When an infected mosquito bites a host, ∼100 sporozoites may be injected into the dermis from where they rapidly invade liver cells,[33]. This infective step represents the second bottleneck during transmission and therefore another potentially vulnerable point for intervention. In the absence of a practical liver stage assay measuring the formation of P. falciparum/P. vivax liver schizonts, an equivalent assay was developed in P. yoelii and used to assess the activity of the collection of molecules against this specific stage. Specifically, P. yoelii sporozoites were dissected from the salivary glands of infected mosquitoes and were allowed to invade human hepatocarcinoma cells expressing the CD81 protein. The development of the liver schizonts was monitored by immunofluorescence staining using an HSP70 antibody specific to the parasite (Figure 4A).

[2] = test system: P. yoelii liver stage parasites (liver schizonts); experiment: P. yoelii liver stage assay in HepG2 cells (EEF immunofluorescence); format: cell-based, Plasmodium yoelii; conditions: for IC50: Plasmodium yoelii; for potency range against liver stages: dose response
Description: as §1
After washing with 1×PBS and fixation of the cells with 4% paraformaldehyde solution (EMS), membranes were permeabilised with 0.5% Triton-X-100 (Thermo Fisher Scientific) and EEFs were stained using a mouse polyclonal serum raised against the Plasmodium heat shock protein 70 (HSP70), an Alexa goat antimouse IgG, Fca-specific DyLight 649 secondary antibody (Invitrogen), and the Hoechst 33342 nucleic acid dye (Invitrogen). Stained EEFs were then quantified using the Opera Confocal High Content Screening system (PerkinElmer). Images were collected using a 20× magnification at a binning of 2 using a 365 Xeon arc lamp illumination to detect the nuclei and 635-nm laser line to excite DyLight649.
as §2, §3
Figure 4 Validation and results of anti-infectives tested against P. yoelii liver stage parasites. (A) Opera-generated images from a time point experiment using a 20× objective lens. P. yoelii parasites (red) were visualized using a mouse polyclonal HSP70 antibody, and the HepG2 cells (green) were stained with Hoechst 33342 nucleic acid dye. […] (B) A dose response plot with atovaquone from data generated from the Opera imaging system. The median areas of compound-treated parasites were compared to untreated DMSO controls to determine the degree of inhibition.

[3] = test system: P. falciparum mature gametocytes / male gamete exflagellation; experiment: P. falciparum exflagellation assay; format: cell-based, Plasmodium falciparum; conditions: for inhibition at 10 µM: Plasmodium falciparum
Description: After 24 h, exflagellation was triggered by a temperature decrease to ∼21°C and observed 20 min later under the microscope. Highly motile exflagellation centres were recorded for ∼50–150 adjacent fields of view and reported per 10,000 RBCs.
(A) Assays examined exflagellation (P. falciparum), ookinete formation (P. berghei), or oocyst formation (P. falciparum). All antimalarials were screened at 10 µM. (B) The biological content of the in vitro P. berghei ookinete assay spans gamete formation, fertilization, zygote development, and ookinete formation. […] (D) The in vitro P. falciparum exflagellation assay exposes mature gametocytes to antimalarials for 24 h before triggering exflagellation. […] All experiments in triplicate. (E) The in vivo P. falciparum oocyst assay differs from the P. berghei oocyst assay in that mature gametocytes were exposed to the antimalarials in culture for 24 h before feeding to mosquitoes.

[4] = HepG2, development of P. yoelii liver schizonts following infection of HepG2 cells, read-out: IC50 Parasite
[5] = HepG2, dose response, read-out: IC50 liver stage
[6] = HepG2, box linked to liver schizont, read-out: IC50 (liver schizont, Figure 5)
[7] = HepG2, dose response, median parasite area (Opera), read-out: IC50 liver stage
[8] = asexual blood stage, all parasite lines, read-out: IC50
[9] = 10 µM, 24 h exposure of mature gametocytes
[10] = 10 μM, box linked to gametocytes/exflagellation, read-out: Inhibition at 10 μM (gametocytes/exflagellation, Figure 5)
[11] = asexual blood stage, both drug-resistant and -sensitive strains, read-out: IC50
[12] = read-out: inhibition of exflagellation, 10 µM, 24 h exposure of mature gametocytes
[13] = asexual blood stage, all parasite lines

OC(c1cc(C(F)(F)F)nc2c(C(F)(F)F)cccc12)C1CCCCN1 (racemic) [racemic mefloquine, mefloquine]
IC50 [1]: < 10 nM
IC50 (HepG2 cells): 1.73 ± 0.6 µM
CI (cytotoxicity index) (HepG2 cells; human, 48 h): 1.02
IC50 [2, 4]: 1690 ± 1450 nM

CCN(CC)CCCNc1ccnc2cc(Cl)ccc12 [AQ-13]
IC50 [2, 5]: < 3000 nM

CCc1nc(N)nc(N)c1OCCCOc1ccccc1CCC(=O)O [P218]
IC50 [2, 6]: < 1000 nM
IC50 [2, 7]: < 10 nM

N=C(N)c1ccc(OCCCCCOc2ccc(C(=N)N)cc2)cc1 [Pentamidine]
IC50 (HepG2 cells): 3.75 ± 1.1 µM
CI (cytotoxicity index) (HepG2 cells; human, 48 h): 1.52
IC50 [2, 4]: 2460 ± 570 nM

CCN(CC)Cc1cc(Nc2ccnc3cc(Cl)ccc23)ccc1O [amodiaquine]
IC50 [1, 8]: 2 to 10 nM
resistance / retention of potency against resistant strains [1]: do not lose potency when tested against chloroquine resistant strains
effect on exflagellation (words) [3, 9]: inhibited P. falciparum exflagellation
inhibition at 10 µM [3, 10]: > 60%
IC50 [2, 5]: < 3000 nM

C[C@@H]1CC[C@H]2[C@@H](C)C(=O)O[C@@H]3O[C@@]4(C)CC[C@@H]1[C@]32OO4 [artemisinin]
IC50 [1, 8]: 1 to 15 nM

C[C@H]1[C@H](N2CCS(=O)(=O)CC2)O[C@@H]2O[C@@]3(C)CC[C@H]4[C@H](C)CC[C@@H]1[C@@]24OO3 [artemisone]
IC50 [2, 6]: < 1000 nM
IC50 [2, 7]: < 100 nM

C[C@H]1[C@H](OC(=O)CCC(=O)O)O[C@@H]2O[C@@]3(C)CC[C@H]4[C@H](C)CC[C@@H]1[C@@]24OO3 [artesunate]
IC50 [1, 8]: 1 to 15 nM
IC50 [2, 6]: < 1000 nM

CC[C@H]1OC(=O)[C@H](C)[C@@H](O[C@H]2C[C@@](C)(OC)[C@@H](O)[C@H](C)O2)[C@H](C)[C@@H](O[C@@H]2O[C@H](C)C[C@H](N(C)C)[C@H]2O)[C@](C)(O)C[C@@H](C)CN(C)[C@H](C)[C@@H](O)[C@]1(C)O [azithromycin]
IC50 [1, 11]: 1000 to 10000 nM

COc1cc(NC(C)CCCNC(C)=C2CCOC2=O)c2ncccc2c1 (stereo not drawn) [bulaquine]
IC50 [1, 11]: 500 to 2500 nM

CCN(CC)CCCC(C)Nc1ccnc2cc(Cl)ccc12 (stereo not drawn) [chloroquine]
fold reduction in potency [1]: 6–100 fold
enhancement (stimulation) of exflagellation [3, 9]: at least 20%

CC1(C)N=C(N)N=C(N)N1c1ccc(Cl)cc1 [cycloguanil]
IC50 ([1]; Erythrocyte, read-out: IC50 (erythrocyte schizont, Figure 5), box linked to blood stage schizont): < 4 nM
fold loss of potency ([1]; between sensitive and resistant strains): ≥ 100 fold
IC50 [2, 6]: < 1000 nM
IC50 [2, 7]: < 10 nM

CC(=O)N(O)CCCCCNC(=O)CCC(=O)N(O)CCCCCNC(=O)CCC(=O)N(O)CCCCCN [deferoxamine]
IC50 [2, 6]: < 1000 nM
potency range against liver stages [2]: submicromolar potencies

C[C@]12CC[C@H](O)CC1=CC[C@@H]1[C@@H]2CC[C@]2(C)C(=O)CC[C@@H]12 [dehydroepiandrosterone]
IC50 ([1]; asexual blood stage, both drug-resistant and -sensitive strains): 1000 to 10000 nM

CCN(CC)CCCC(C)Nc1cc(OC)cc2cccnc12 (stereo not drawn) [diethylprimaquine]
IC50 [1, 11]: 500 to 2500 nM
inhibition at 10 µM [3, 12]: > 70%

CCN(CCO)CCCC(C)Nc1ccnc2cc(Cl)ccc12 (stereo not drawn) [hydroxychloroquine]
fold reduction in potency [1]: 6–100 fold
enhancement (stimulation) of exflagellation [3, 9]: at least 20%

CN(C)c1ccc2nc3ccc(=[N+](C)C)cc-3sc2c1 [methylene blue]
IC50 [2, 6]: < 1000 nM
IC50 [2, 7]: < 100 nM

CC(C)(C)NCc1cc(Nc2ccnc3cc(Cl)ccc23)c2c(c1O)CCCC2 [naphthoquine]
IC50 [1, 13]: 2 to 10 nM
resistance / retention of potency against resistant strains [1]: do not lose potency when tested against chloroquine resistant strains
IC50 [2, 6]: < 1000 nM
IC50 [2, 5]: < 3000 nM

Clc1ccc2c(N3CCN(CCCN4CCN(c5ccnc6cc(Cl)ccc56)CC4)CC3)ccnc2c1 [piperaquine]
IC50 [1, 13]: 2 to 10 nM
resistance / retention of potency against resistant strains [1]: do not lose potency when tested against chloroquine resistant strains

COc1cc(NC(C)CCCN)c2ncccc2c1 (stereo not drawn) [primaquine]
IC50 [1]: 500 to 2500 nM
enhancement (stimulation) of exflagellation [3, 9]: 15%

[H]/N=C(\N/C(=N/[H])Nc1ccc(Cl)cc1)NC(C)C [proguanil]
IC50 [1, 11]: 1000 to 10000 nM
IC50 (HepG2 cells): 15.4 ± 3.09 µM
CI (cytotoxicity index) (HepG2 cells; IC50 HepG2 compared to IC50 parasite): 1.31
IC50 [2, 4]: 11800 ± 5190 nM

C=C[C@H]1C[N@@]2CC[C@H]1C[C@@H]2[C@@H](O)c1ccnc2ccc(OC)cc12 [quinidine]
IC50 [2, 6]: < 1000 nM
potency range against liver stages [2]: submicromolar potencies

Cc1cc2nc3c(=O)[nH]c(=O)nc-3n(C[C@H](O)[C@H](O)[C@H](O)CO)c2cc1C [riboflavin]
IC50 [1, 11]: 1000 to 10000 nM

Cc1cc(NS(=O)(=O)c2ccc(N)cc2)no1 [sulfamethoxazole]
inhibition at 10 µM [3, 12]: > 80%
inhibition at 10 µM [3, 10]: > 60%

CC(C)(C)NCc1ccc(Nc2ccnc3cc(Cl)ccc23)cc1O [tert-butyl-isoquine]
IC50 [1, 13]: 2 to 10 nM
resistance / retention of potency against resistant strains [1]: do not lose potency when tested against chloroquine resistant strains
effect on exflagellation (words) [3, 9]: inhibited P. falciparum exflagellation
effect on exflagellation (words) ([3]; 10 µM, 24 h exposure of mature gametocytes, listed as tert-butyl isoquine): inhibited exflagellation totally
inhibition at 10 µM [3, 10]: > 60%

COc1cc(Cc2cnc(N)nc2N)cc(OC)c1OC [trimethoprim]
IC50 [1, 11]: 1000 to 10000 nM
